Results as given in the supplement of paper PMC10307832.

Legend:
Assay in all cases: relative viability (nuclei count vs DMSO), 5 days (fraction); higher = more cells survive
201T = tested on: 201T
Method in brief: (§1)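 Nuclei were stained with Hoechst during a one-step fixation (final 0.05% Triton X-100, 1% formaldehyde, 1 ug/ml Hoechst) carried out 5 days after dosing, then counted on 4× images. The cells, lung cancer lines in 1536-well plates, had been dosed by pin tool the day after seeding with one drug alone or a fixed anchor-drug dose plus five library-drug doses (not always all listed) in √10 steps. Relative viability is the nuclei count in treated wells divided by that in vehicle wells, and each value is the median of duplicate plates.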

BEN = tested on: BEN
Method in brief: as §1

EKVX = tested on: EKVX
Method in brief: as §1

EPLC-272H = tested on: EPLC-272H
Method in brief: as §1

H3255 = tested on: H3255
Method in brief: as §1

HCC-44 = tested on: HCC-44
Method in brief: as §1

HCC-827 = tested on: HCC-827
Method in brief: as §1

HOP-62 = tested on: HOP-62
Method in brief: as §1

LCLC-97TM1 = tested on: LCLC-97TM1
Method in brief: as §1

LOU-NH91 = tested on: LOU-NH91
Method in brief: as §1

LU99A = tested on: LU99A
Method in brief: as §1

NCI-H1395 = tested on: NCI-H1395
Method in brief: as §1

NCI-H1437 = tested on: NCI-H1437
Method in brief: as §1

NCI-H1666 = tested on: NCI-H1666
Method in brief: as §1

NCI-H1975 = tested on: NCI-H1975
Method in brief: as §1

NCI-H2085 = tested on: NCI-H2085
Method in brief: as §1

NCI-H2087 = tested on: NCI-H2087
Method in brief: as §1

NCI-H2126 = tested on: NCI-H2126
Method in brief: as §1

NCI-H2342 = tested on: NCI-H2342
Method in brief: as §1

NCI-H358 = tested on: NCI-H358
Method in brief: as §1

NCI-H647 = tested on: NCI-H647
Method in brief: as §1

PC-3 [JPC-3] = tested on: PC-3 [JPC-3]
Method in brief: as §1

`Clc1ccc(Nc2nnc(Cc3ccncc3)c3ccccc23)cc1` [Vatalanib] + NC(=O)Nc1cc(-c2cccc(F)c2)sc1C(=O)N[C@H]1CCCNC1 [AZD7762] (partner 0.2 µM) showed a relative viability (201T; first compound 0.04 µM) of 0.611, a relative viability (201T; first compound 0.1265 µM) of 0.57 and a relative viability (201T; first compound 0.4 µM) of 0.621. For the same molecule, the relative viability (201T; first compound 1.265 µM) was 0.648, the relative viability (201T; first compound 4 µM) was 0.57 and the relative viability (BEN; first compound 0.04 µM) was 0.676. It also gave a relative viability (BEN; first compound 0.1265 µM) of 0.732, a relative viability (BEN; first compound 0.4 µM) of 0.596 and a relative viability (BEN; first compound 1.265 µM) of 0.602. It also gave a relative viability (BEN; first compound 4 µM) of 0.685, a relative viability (EKVX; first compound 0.04 µM) of 0.646 and a relative viability (EKVX; first compound 0.1265 µM) of 0.623. For the same molecule, the relative viability (EKVX; first compound 0.4 µM) was 0.679, the relative viability (EKVX; first compound 1.265 µM) was 0.679 and the relative viability (EKVX; first compound 4 µM) was 0.64. It also gave a relative viability (EPLC-272H; first compound 0.04 µM) of 0.0728, a relative viability (EPLC-272H; first compound 0.1265 µM) of 0.167 and a relative viability (EPLC-272H; first compound 0.4 µM) of 0.212. For the same molecule, the relative viability (EPLC-272H; first compound 1.265 µM) was 0.216, the relative viability (EPLC-272H; first compound 4 µM) was 0.207 and the relative viability (H3255; first compound 0.04 µM) was 0.829. For the same molecule, the relative viability (H3255; first compound 0.1265 µM) was 0.892, the relative viability (H3255; first compound 0.4 µM) was 0.832 and the relative viability (H3255; first compound 1.265 µM) was 0.732. The relative viability (H3255; first compound 4 µM) was 0.773, the relative viability (HCC-44; first compound 0.04 µM) was 1.01 and the relative viability (HCC-44; first compound 0.1265 µM) was 1.03. It also gave a relative viability (HCC-44; first compound 0.4 µM) of 0.959, a relative viability (HCC-44; first compound 1.265 µM) of 0.983 and a relative viability (HCC-44; first compound 4 µM) of 1. For the same molecule, the relative viability (HCC-827; first compound 0.04 µM) was 0.187, the relative viability (HCC-827; first compound 0.1265 µM) was 0.282 and the relative viability (HCC-827; first compound 1.265 µM) was 0.183. The relative viability (HCC-827; first compound 4 µM) was 0.194, the relative viability (HOP-62; first compound 0.04 µM) was 0.792 and the relative viability (HOP-62; first compound 0.1265 µM) was 0.618. It also gave a relative viability (HOP-62; first compound 0.4 µM) of 0.603, a relative viability (HOP-62; first compound 1.265 µM) of 0.695 and a relative viability (HOP-62; first compound 4 µM) of 0.681. It also gave a relative viability (LCLC-97TM1; first compound 0.04 µM) of 0.24, a relative viability (LCLC-97TM1; first compound 0.1265 µM) of 0.263 and a relative viability (LCLC-97TM1; first compound 0.4 µM) of 0.222. It also gave a relative viability (LCLC-97TM1; first compound 1.265 µM) of 0.172, a relative viability (LCLC-97TM1; first compound 4 µM) of 0.23 and a relative viability (LOU-NH91; first compound 0.04 µM) of 0.786. The relative viability (LOU-NH91; first compound 0.1265 µM) was 0.691, the relative viability (LOU-NH91; first compound 0.4 µM) was 0.756 and the relative viability (LOU-NH91; first compound 1.265 µM) was 0.708. For the same molecule, the relative viability (LOU-NH91; first compound 4 µM) was 0.686, the relative viability (LU99A; first compound 0.04 µM) was 0.351 and the relative viability (LU99A; first compound 0.1265 µM) was 0.442. It also gave a relative viability (LU99A; first compound 0.4 µM) of 0.345, a relative viability (LU99A; first compound 1.265 µM) of 0.258 and a relative viability (LU99A; first compound 4 µM) of 0.287. For the same molecule, the relative viability (NCI-H1395; first compound 0.04 µM) was 0.381, the relative viability (NCI-H1395; first compound 0.1265 µM) was 0.381 and the relative viability (NCI-H1395; first compound 0.4 µM) was 0.389. For the same molecule, the relative viability (NCI-H1395; first compound 4 µM) was 0.394, the relative viability (NCI-H1437; first compound 0.04 µM) was 1.07 and the relative viability (NCI-H1437; first compound 0.1265 µM) was 1.08. The relative viability (NCI-H1437; first compound 0.4 µM) was 1.18, the relative viability (NCI-H1437; first compound 1.265 µM) was 1.06 and the relative viability (NCI-H1437; first compound 4 µM) was 0.997. It also gave a relative viability (NCI-H1666; first compound 0.04 µM) of 0.733, a relative viability (NCI-H1666; first compound 0.1265 µM) of 0.874 and a relative viability (NCI-H1666; first compound 0.4 µM) of 0.855. It also gave a relative viability (NCI-H1666; first compound 1.265 µM) of 0.694, a relative viability (NCI-H1666; first compound 4 µM) of 0.762 and a relative viability (NCI-H1975; first compound 0.04 µM) of 0.731. The relative viability (NCI-H1975; first compound 0.1265 µM) was 0.66, the relative viability (NCI-H1975; first compound 0.4 µM) was 0.59 and the relative viability (NCI-H1975; first compound 1.265 µM) was 0.492. The relative viability (NCI-H1975; first compound 4 µM) was 0.568, the relative viability (NCI-H2085; first compound 0.04 µM) was 1.12 and the relative viability (NCI-H2085; first compound 0.1265 µM) was 1. For the same molecule, the relative viability (NCI-H2085; first compound 0.4 µM) was 0.998, the relative viability (NCI-H2085; first compound 1.265 µM) was 0.862 and the relative viability (NCI-H2085; first compound 4 µM) was 0.928. For the same molecule, the relative viability (NCI-H2087; first compound 0.04 µM) was 1.28, the relative viability (NCI-H2087; first compound 0.1265 µM) was 1.25 and the relative viability (NCI-H2087; first compound 0.4 µM) was 1.4. For the same molecule, the relative viability (NCI-H2087; first compound 1.265 µM) was 1.19, the relative viability (NCI-H2087; first compound 4 µM) was 1.15 and the relative viability (NCI-H2126; first compound 0.04 µM) was 0.994. It also gave a relative viability (NCI-H2126; first compound 0.1265 µM) of 0.99, a relative viability (NCI-H2126; first compound 0.4 µM) of 1.02 and a relative viability (NCI-H2126; first compound 1.265 µM) of 0.995. For the same molecule, the relative viability (NCI-H2126; first compound 4 µM) was 1.07, the relative viability (NCI-H2342; first compound 0.04 µM) was 0.453 and the relative viability (NCI-H2342; first compound 0.1265 µM) was 0.537. For the same molecule, the relative viability (NCI-H2342; first compound 0.4 µM) was 0.378, the relative viability (NCI-H2342; first compound 1.265 µM) was 0.484 and the relative viability (NCI-H2342; first compound 4 µM) was 0.45. It also gave a relative viability (NCI-H358; first compound 0.04 µM) of 0.694, a relative viability (NCI-H358; first compound 0.1265 µM) of 0.441 and a relative viability (NCI-H358; first compound 0.4 µM) of 0.57. For the same molecule, the relative viability (NCI-H358; first compound 1.265 µM) was 0.446, the relative viability (NCI-H358; first compound 4 µM) was 0.481 and the relative viability (NCI-H647; first compound 0.04 µM) was 0.489. The relative viability (NCI-H647; first compound 0.1265 µM) was 0.45, the relative viability (NCI-H647; first compound 0.4 µM) was 0.395 and the relative viability (NCI-H647; first compound 1.265 µM) was 0.391. The relative viability (NCI-H647; first compound 4 µM) was 0.46, the relative viability (PC-3 [JPC-3]; first compound 0.04 µM) was 0.81 and the relative viability (PC-3 [JPC-3]; first compound 0.1265 µM) was 0.751. The relative viability (PC-3 [JPC-3]; first compound 0.4 µM) was 0.674, the relative viability (PC-3 [JPC-3]; first compound 1.265 µM) was 0.705 and the relative viability (PC-3 [JPC-3]; first compound 4 µM) was 0.728.
